Measurements published in US8748417B2, “Amino-pyrrolidine-azetidine diamides as monoacylglycerol lipase inhibitors” (Janssen Pharmaceutica, NV, priority 2010, dated 2014).
Residue numbers refer to the chain shown, from its start. pIC50: −log10 of the molar value.

Assays:
[1] = molecular target: T1, purified mutant MGL (mut-MGLL 11-313 L179S L186S) (Homo sapiens, UniProt Q99685, L169S/L176S); assay: MGL enzyme activity assay (4MU-B cleavage), mutant MGL; type: biochemical; conditions: mutant MGL 5 nM, 4MU-B 10 μM, 37° C.; read-out: MGL mutant inh IC50
T1 construct: purified mutant MGL (mut-MGLL 11-313 L179S L186S)
T1 sequence (Q99685 1-303 L169S/L176S): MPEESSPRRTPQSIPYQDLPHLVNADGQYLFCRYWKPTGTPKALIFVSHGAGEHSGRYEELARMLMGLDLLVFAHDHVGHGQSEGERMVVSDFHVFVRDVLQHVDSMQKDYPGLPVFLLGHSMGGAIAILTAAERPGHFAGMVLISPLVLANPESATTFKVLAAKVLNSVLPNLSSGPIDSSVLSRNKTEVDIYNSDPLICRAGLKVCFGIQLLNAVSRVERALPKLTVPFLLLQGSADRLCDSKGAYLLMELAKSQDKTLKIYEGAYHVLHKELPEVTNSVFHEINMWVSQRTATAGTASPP
Outline: (§1)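 Enzyme in 20 mM PIPES pH 7.0, 150 mM NaCl, 0.001% Tween 20 with 4MU-B at 10 μM final and MGL at 5 nM final; compounds 17 to 0.0003 μM final, enzyme added last. Fluorescence (ex 335/em 440 nm) followed at 37° C for 5 min; IC50 from fit of fractional activity versus inhibitor concentration.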

[2] = molecular target: T2, purified wild type MGL (wt-MGLL 6H-11-313) (Homo sapiens, UniProt Q99685); assay: MGL enzyme activity assay (4MU-B cleavage), wild type MGL; type: biochemical; conditions: wild type MGL 5 nM, 4MU-B 10 μM, 37° C.; read-out: MGL wild type inh IC50
T2 construct: purified wild type MGL (wt-MGLL 6H-11-313)
T2 sequence (Q99685 1-303): T1 sequence (Q99685 1-303 L169S/L176S) with S169L, S176L
Outline: as §1

[3] = system: MGL (rat brain homogenate); assay: 2-AG accumulation assay in rat brain homogenate; type: biochemical; conditions: compound 1 μM, percent of vehicle 2-AG accumulation
Outline: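 Rat brain homogenate was incubated with compound for 15 min at 37° C., after which CaCl2 was added to a final concentration of 10 mM and incubation continued for 15 min at 37° C. in 5 mL total. Reactions were stopped with 6 mL of 2:1 chloroform/methanol, and 2-AG accumulated in the organic phase was quantified by HPLC/MS.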

[4] = system: CFA-induced paw radiant heat hypersensitivity; assay: CFA-induced paw radiant heat hypersensitivity; type: in vivo; conditions: rat, 30 mg/kg p.o., 20% HPβCD, last time point 300 min; for inhibition in vivo at 30 mg/kg: po, 5 h, group mean values, read-out: Method 1: peak % reversal; for Method 2: peak % reversal: individual animal values
Protocol: Each rat was placed in a test chamber on a warm glass surface and allowed to acclimate for approximately 10 min. A radiant thermal stimulus (beam of light) was focused through the glass onto the plantar surface of each hind paw in turn. The thermal stimulus was automatically shut off by a photoelectric relay when the paw was moved or when the cut-off time was reached (20 sec for radiant heat at ˜5 amps). An initial (baseline) response latency to the thermal stimulus was recorded for each animal prior to the injection of complete Freund's adjuvant (CFA). Twenty-four hours following intraplantar CFA injection, the response latency of the animal to the thermal stimulus was re-evaluated and compared to the animal's baseline response time. […] Immediately following the post-CFA latency assessment, the indicated test compound or vehicle was administered orally. Post-compound treatment withdrawal latency was assessed at fixed time intervals, typically 30, 60, 120, 180, and 300 min. • The percent reversal (% R) of hypersensitivity was calculated in one of two different ways: 1) using group mean values or 2) using individual animal values. More specifically: • Method 1. For all compounds, the % R of hypersensitivity was calculated using the mean value for groups of animals at each time point according to the following formula: % reversal=[(group treatment response−group CFA response)/(group baseline response−group CFA response)]×100 • Results are given for the maximum % reversal observed for each compound at any time point tested. • Method 2. For some compounds, the % R of hypersensitivity was calculated separately for each animal according to the following formula: % reversal=[(individual treatment response−individual CFA response)/(individual baseline response−individual CFA response)]×100. • Results are given as a mean of the maximum % reversal values calculated for each individual animal.

[5] = system: murine model of acute inflammation; conditions: Comelli et al., Brit J Pharmacol, 2007; cited from earlier work

pIC50 [1] | pIC50 [2] | SMILES | Rat Brain 2AG % VehCntrl (%) @1 μM [3] [%] | inhibition in vivo at 30 mg/kg [4] [%] | Method 2: peak % reversal [4] [%] | antinociceptive effect [5]
8.20 | 7.18 | O=C(c1ccc(-c2cccc(C(F)(F)F)c2)cc1)N1CC(N[C@H]2CN(C(=O)c3ccccc3)CC2F)C1 (single isomer, unassigned) [Cpd 63] | 696 | -8.2 | – | –
> 8.30 | 7.78 | O=C(c1ccc(-c2cccc(C(F)(F)F)c2)cc1)N1CC(N[C@H]2CCN(C(=O)c3ccccc3)C2)C1 [Cpd 16, (3S)-1-(Phenylcarbonyl)-N-(1-{[3′-(trifluoromethyl)biphenyl-4-yl]carbonyl}azetidin-3-yl)pyrrolidin-3-amine] | 220 | 78 | 87.7 | –
7.72 | 7.80 | Cc1c(C(=O)N2CC(N[C@H]3CCN(C(=O)c4ccccc4)C3)C2)sc2ccc(-c3ccc(C(F)(F)F)cc3)cc12 [Cpd 40, (3S)-N-[1-({3-Methyl-5-[4-(trifluoromethyl)phenyl]-1-benzothiophen-2-yl}carbonyl)azetidin-3-yl]-1-(phenylcarbonyl)pyrrolidin-3-amine] | 1145 | 15.9 | 17.3 | –
– | 7.82 | O=C(c1ccc2c(-c3cccc(C(F)(F)F)c3)c[nH]c2c1)N1CC(N[C@H]2CCN(C(=O)c3ccccc3)C2)C1 [Cpd 103, (3S)-1-(Phenylcarbonyl)-N-[1-({3-[3-(trifluoromethyl)phenyl]-1H-indol-6-yl}carbonyl)azetidin-3-yl]pyrrolidin-3-amine] | 332 | 28 | – | –
– | 7.74 | O=C(c1ccc2c(-c3cccc(C(F)(F)F)c3)c[nH]c2c1)N1CC(N[C@H]2CCN(C(=O)c3nccs3)C2)C1 [Cpd 105, (3S)-1-(1,3-Thiazol-2-ylcarbonyl)-N-[1-({3-[3-(trifluoromethyl)phenyl]-1H-indol-6-yl}carbonyl)azetidin-3-yl]pyrrolidin-3-amine] | 812 | 37.2 | – | –
– | 7.78 | O=C(c1ccc(-c2cccc(C(F)(F)F)c2)cc1)N1CC(N[C@H]2CCN(C(=O)c3cscn3)C2)C1 [Cpd 114, (3S)-1-(1,3-Thiazol-4-ylcarbonyl)-N-(1-{[3′-(trifluoromethyl)biphenyl-4-yl]carbonyl}azetidin-3-yl)pyrrolidin-3-amine] | 311 | 25.1 | – | –
– | 8.22 | O=C(c1ccc2c(ccn2-c2ccc(F)cc2)c1)N1CC(N[C@H]2CCN(C(=O)c3nccs3)C2)C1 [Cpd 159, (3S)-N-(1-{[1-(4-Fluorophenyl)-1H-indol-5-yl]carbonyl}azetidin-3-yl)-1-(1,3-thiazol-2-ylcarbonyl)pyrrolidin-3-amine] | 476 | 56.5 | – | –
– | 8.20 | Cn1cc(-c2cccc(C(F)(F)F)c2)c2ccc(C(=O)N3CC(N[C@H]4CCN(C(=O)c5nccs5)C4)C3)cc21 [Cpd 162, (3S)-N-[1-({1-Methyl-3-[3-(trifluoromethyl)phenyl]-1H-indol-6-yl}carbonyl)azetidin-3-yl]-1-(1,3-thiazol-2-ylcarbonyl)pyrrolidin-3-amine] | 911 | 69.7 | – | –
– | – | O=C(Nc1cccc(-c2ccccc2)c1)OC1CCCCC1 [URB602] | – | – | – | showed an antinociceptive effect
